Legend:
p27 in ECC-1 cells = assay: p27 immunoblot in ECC-1 cells (whole cell lysates, nuclear and cytoplasmic fractions); settings: for Block of E2-induced decrease of p27: ECC-1, control siRNA transfected, 1 nM E2 plus 1 μM Lactacystin or 10 nM ICI 182,780
Procedure: The endometrial carcinoma cell line (derived from a well-differentiated endometrioid Type I ECA) ECC-1 cells (ATCC, Manassas, Va.) were plated at a density of 3×10^5/well/6-well plate and grown in DMEM:F12 supplemented with 10% FBS (BioWest, Ocala, Fla.). The cell line was passaged in the laboratory for fewer than 6 months after receipt. […] ECAs were plated at a density of 2.2×10^6 cells/6-well Primaria® plates (BD Biosciences, San Jose, Calif.) in McCoys 5A media without phenol red containing 10% charcoal-stripped FBS, 2 mM L-Glutamine (Invitrogen) and antimycotic antibiotic solution (Mediatech, Hendon, Va.).
For subcellular fractionation, following treatments, cells were separated into nuclear and cytoplasmic fractions using the NE-PER kit (Thermo Scientific), and 10 μg cytoplasmic and nuclear protein fractions were loaded onto SDS-PAGE for immunoblotting. […] The membranes were incubated with peroxidase-conjugated goat anti-rabbit or goat anti-mouse secondary antibodies in TBST (1:2000; Thermo Scientific). […] Protein bands were resolved using the SuperSignal West Dura kit (Thermo Scientific), visualized by exposure to X-ray film (HyBlot; Denville Scientific, Denville, N.J.), and following densitometric scanning (Kodak Logic-100), the protein bands were quantified by normalizing to β-actin and compared to the untreated control, and the values represented by the graphs of relative protein levels compared to actin in each well and shown as % of Vehicle control.

ECC-1 cells = assay: ECC-1 cell proliferation (MTS assay); format: cell-based, human; settings: Lactacystin-treated cells
[1] = system: p27 in 501 Mel, SK-MEL-147, and SK-MEL-173; assay: Immunoblot of steady state protein levels in metastatic melanoma cell lines; format: cell-based, human; settings: 501 Mel cells; 400 nM
Procedure: 501 Mel cells were also treated with MG-132 (a proteasome inhibitor) to confirm that p27 and p21 induction were responsive to known UPS inhibitors (FIG. 4A, right). […] Thus, treatment of cells with inhibitors targeting the Skp2-Cks1 interface induces protein levels of specific Skp2-Cks1 substrates.
Whole cell extracts were prepared and immunoblotted as previously described Dorrello et al., “S6K1- and betaTRCP-mediated Degradation of PDCD4 Promotes Protein Translation and Cell Growth,” Science 314:467-471 (2006), which is hereby incorporated by reference in its entirety. For knockdown of Skp2 or p27, shRNAs were induced with 2 ng/ml doxycycline for 48 hours, with the last 16 hours co-treated with 0.1% Vehicle or 10 μM inhibitors as indicated. For cycloheximide chase, cells were pretreated 16 h with 0.1% Vehicle or 10 μM inhibitors, followed by 20 ng/ml cycloheximide (Sigma) and whole cell extracts collected for each time point. […] Scanning densitometry was performed on immunoblots using Image J software. For cell cycle analysis, cells were treated with 0.1% Vehicle or 10 μM inhibitors for 16 h. 1×10^6 cells were fixed in 70% ethanol for 2 h, treated with 200 μg/ml RNase A (Invitrogen) for 30 minutes, and stained with 20 μg/ml Propidium Iodine (Sigma). All samples were assayed in triplicates. Signal was detected using the Becton Dickson LSRII flow cytometer and cell cycle profiles were analyzed with FloJo.

Skp2-p27 interaction = molecular target: T1, Skp2-p27 interaction (Homo sapiens, UniProt P61024+Q13309); assay: p27 binding to HA-Skp2 (HA-immunoprecipitation); settings: 10 μM; HA-Skp2 and Cks1 pretreated before p27-pT187; without ubiquitylation
T1 construct: made in house; host or cells: cell-free: rabbit reticulocyte lysate (TNT T7 Coupled Reticulocyte Lysate System, Promega) from pcDNA3.1 plasmids
T1 sequence (Q13309 whole entry): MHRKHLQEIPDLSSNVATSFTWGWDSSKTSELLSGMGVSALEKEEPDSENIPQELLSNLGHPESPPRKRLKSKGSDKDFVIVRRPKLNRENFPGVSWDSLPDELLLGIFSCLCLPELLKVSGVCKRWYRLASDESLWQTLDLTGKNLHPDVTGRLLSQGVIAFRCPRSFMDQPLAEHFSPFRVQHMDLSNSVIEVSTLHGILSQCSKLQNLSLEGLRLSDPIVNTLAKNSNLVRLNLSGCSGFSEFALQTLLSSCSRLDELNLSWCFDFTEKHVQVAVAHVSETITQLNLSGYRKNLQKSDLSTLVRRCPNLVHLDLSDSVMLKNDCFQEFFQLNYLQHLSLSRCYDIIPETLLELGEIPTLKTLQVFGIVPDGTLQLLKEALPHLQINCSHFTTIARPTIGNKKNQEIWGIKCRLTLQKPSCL
T1 sequence (P61024 whole entry): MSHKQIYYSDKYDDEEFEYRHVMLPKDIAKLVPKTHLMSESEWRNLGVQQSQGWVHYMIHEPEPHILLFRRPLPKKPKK
T1 sequence (P63208 whole entry partner): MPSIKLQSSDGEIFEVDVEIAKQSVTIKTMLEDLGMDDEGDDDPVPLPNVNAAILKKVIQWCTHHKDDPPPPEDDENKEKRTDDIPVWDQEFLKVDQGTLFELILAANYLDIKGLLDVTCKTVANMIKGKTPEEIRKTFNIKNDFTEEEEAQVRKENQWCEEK
T1 sequence (Q13616 whole entry partner): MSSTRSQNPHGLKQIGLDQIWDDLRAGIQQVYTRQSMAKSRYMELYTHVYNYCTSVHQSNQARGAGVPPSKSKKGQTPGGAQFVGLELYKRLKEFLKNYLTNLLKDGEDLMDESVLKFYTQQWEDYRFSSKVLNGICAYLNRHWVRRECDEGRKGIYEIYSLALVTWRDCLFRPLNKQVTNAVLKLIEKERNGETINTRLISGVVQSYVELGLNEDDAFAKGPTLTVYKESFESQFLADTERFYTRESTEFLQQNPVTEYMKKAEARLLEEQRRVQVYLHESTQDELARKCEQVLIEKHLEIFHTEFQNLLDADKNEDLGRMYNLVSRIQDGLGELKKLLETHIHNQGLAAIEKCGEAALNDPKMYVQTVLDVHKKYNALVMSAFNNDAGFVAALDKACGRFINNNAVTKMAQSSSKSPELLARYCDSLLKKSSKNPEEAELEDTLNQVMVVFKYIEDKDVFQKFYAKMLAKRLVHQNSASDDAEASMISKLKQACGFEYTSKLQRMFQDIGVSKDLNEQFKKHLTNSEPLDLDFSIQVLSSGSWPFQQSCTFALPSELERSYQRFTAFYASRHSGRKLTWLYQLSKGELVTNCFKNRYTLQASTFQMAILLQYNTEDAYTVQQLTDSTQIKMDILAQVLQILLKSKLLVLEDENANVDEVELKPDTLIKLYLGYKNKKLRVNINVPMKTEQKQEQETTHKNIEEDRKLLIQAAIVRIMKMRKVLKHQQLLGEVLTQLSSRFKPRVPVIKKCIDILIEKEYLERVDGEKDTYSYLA
T1 sequence (P62877 whole entry partner): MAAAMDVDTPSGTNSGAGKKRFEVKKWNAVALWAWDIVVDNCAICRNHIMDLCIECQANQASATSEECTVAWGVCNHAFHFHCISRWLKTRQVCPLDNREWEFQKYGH
Procedure: In vitro ubiquitylation assays were incubated with anti-HA affinity matrix (Roche) in IP buffer (50 mM Tris pH 7.6, 150 mM NaCl, 0.1% NP40, and Roche Complete EDTA-free protease tablet) for 16 h at 4° C. Beads were washed 3× with IP buffer and eluted with 2×SDS Sample Buffer (Boston Bioproducts) and 10% Beta-mercaptoethanol. For binding without ubiquitylation, HA-Skp2 IVT (10 μl) and Cks1 IVT (10 μl) were preincubated with anti-HA affinity matrix in IP buffer for 2 hours, with the addition of p27 kinase reaction (10 μl) for another 16 h incubation at 4° C. All reactions were analyzed after SDS/PAGE by western blotting. Where indicated, Skp2 and Cks1 were pretreated with 10 μM inhibitors for 30 minutes. Kinase reactions were performed with p27 IVT (10 μl) and 0.5 μg/ul CyclinE/CDK2 in kinase buffer (50 mM Tris HCL pH 7.5, 10 mM MgCl2, 2 mM ATP, 2.5 μM Okadaic Acid, and 0.6 mM DTT) at 30° C. for 1 h.

His-6Skp1-Skp2-Cks1 = molecular target: T2, His-6Skp1-Skp2-Cks1 (Homo sapiens, UniProt P61024+Q13309); assay: Differential scanning fluorimetry (protein melt); format: binding; settings: compound 75 μM; protein 1.5 μM
T2 construct: His6-tagged human Skp2 (residues 89-424); Human full-length Cks1 was produced as described; made in house
T2 sequence (Q13309 89-424 limits assumed): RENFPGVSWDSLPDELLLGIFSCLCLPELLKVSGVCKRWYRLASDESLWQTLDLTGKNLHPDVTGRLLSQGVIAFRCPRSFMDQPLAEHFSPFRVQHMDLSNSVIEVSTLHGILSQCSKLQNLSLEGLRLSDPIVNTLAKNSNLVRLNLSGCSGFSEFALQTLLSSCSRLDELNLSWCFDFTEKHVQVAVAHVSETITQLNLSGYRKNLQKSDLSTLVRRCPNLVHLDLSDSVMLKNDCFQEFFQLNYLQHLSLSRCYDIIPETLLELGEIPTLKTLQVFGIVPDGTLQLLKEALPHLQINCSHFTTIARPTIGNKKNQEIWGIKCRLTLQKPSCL
T2 sequence (P61024 whole entry, the tested form may be a part): as the sequence (P61024 whole entry) above
Procedure: Protein melt assays were carried out following the manufacturer's protocol on the LightCycler 480 System II (Roche) using Sypro Orange dye (Sigma). Fluorescence (465 nm excitation/580 nm detection) was acquired (10 data points/sec) at a ramp rate of 0.06° C./sec between 20° C. and 85° C. Melting temperatures were calculated using the LightCycler 480 Protein Melt analysis tool (Roche).

SCF-Skp2 (Skp2-Cks1) = molecular target: T3, SCF-Skp2 (Skp2-Cks1) (Homo sapiens, UniProt P61024+Q13309); assay: In vitro ubiquitylation assay, Skp2-mediated p27 ubiquitylation (Wild-Type Cks1); format: biochemical; settings: 50 μM compound, immunoblot for p27-(Ub)n
T3 construct: made in house; host or cells: cell-free: rabbit reticulocyte lysate (TNT T7 Coupled Reticulocyte Lysate System, Promega) from pcDNA3.1 plasmids
T3 sequence (Q13309 whole entry): as the sequence (Q13309 whole entry) above
T3 sequence (P61024 whole entry): as the sequence (P61024 whole entry) above
T3 sequence (P63208 whole entry partner): as the sequence (P63208 whole entry partner) above
T3 sequence (Q13616 whole entry partner): as the sequence (Q13616 whole entry partner) above
T3 sequence (P62877 whole entry partner): as the sequence (P62877 whole entry partner) above
Procedure: The 96 hits were tested in an in vitro ubiquitylation assay driven by in vitro transcribed/translated Skp2, Cks1, and p27 (Sitry et al., “Three Different Binding Sites of Cks1 are Required for p27-ubiquitin Ligation,” J. Biol. Chem. 277:42233-42240 (2002)). Assay sensitivity was established for various criteria (FIG. 1B): Enhanced ubiquitylation with Cks1 (lane 2), kinase activity requirement (lane 3), and responsiveness to known inhibitors of Cullin (lane 5) or Cdk2 (lane 6) activity (Meijer et al., “Biochemical and Cellular Effects of Roscovitine, a Potent and Selective Inhibitor of the Cyclin-dependent Kinases cdc2, cdk2 and cdk5,” Eur. J. Biochem. 243:527-536 (1997); Soucy et al., “An Inhibitor of NEDD8-activating Enzyme as a New Approach to Treat Cancer,” Nature 458:732-736 (2009), which are hereby incorporated by reference in their entirety). Compounds showing at least 50% inhibition of Skp2-mediated p27 ubiquitylation (FIG. 1C) were counter-screened for inactivity against two anti-target E3 ligases: MDM2 and SCF-βTrCP (FIGS. 6A-B). Compounds C1 and C2 were identified from the primary VLS and C16 and C20 were identified from a second VLS (FIG. 2).
In vitro reconstituted assays were performed as previously described (Dorrello et al., “S6K1- and betaTRCP-mediated Degradation of PDCD4 Promotes Protein Translation and Cell Growth,” Science 314:467-471 (2006), which is hereby incorporated by reference in their entirety) with the exceptions of the use of (1) unlabeled proteins (wild-type and mutant Skp2 and Cks1, p27, Flag-βTrCP, and HA-PDCD4) generated by in vitro transcription-translation (TNT T7 Coupled Reticulocyte Lysate System, Promega); (2) chain elongation with non-methylated ubiquitin; and (3) immunoblotting to detect poly-ubiquitylation. The following reagents were obtained from Boston Biochem: UBE1, His-UbcH3, His-UbcH5c, Ubiquitin, and Ubiquitin Aldehyde. Additional reagents include CDK2/CyclinE1 (Sigma-Aldrich), S6K (Invitrogen), Okadaic acid (Sigma), and DMSO (Sigma-Aldrich). For ubiquitin charging, UBE1 (100 nM) and His-UbcH3 (10 ng/μl) were incubated with ubiquitin (2.5 μg/μl), ATP (2 mM), and 10 μM […] of inhibitors or Vehicle control for 60 min at 30° C. Reactions were stopped in nondenaturing 2× Sample Buffer, with the addition of 10% Beta-mercaptoethanol as indicated, and analyzed by Western blotting.

C[C@]12CC[C@@H]3c4ccc(O)cc4C[C@@H](CCCCCCCCC[S+]([O-])CCCC(F)(F)C(F)(F)F)[C@H]3[C@@H]1CC[C@@H]2O (some centres unmarked) [ICI 182,780, reference compound] was tested, and the “Block of E2-induced decrease of p27” value (p27 in ECC-1 cells; 18 h) was “nearly completely blocked” and the “Effect on E2-induced decrease in nuclear p27” value (p27 in ECC-1 cells; ECC-1, E2 plus 10 nM ICI 182,780, 18 h) was “to the level of untreated control”.
CC(=O)N[C@@H](CSC(=O)[C@]1([C@@H](O)C(C)C)NC(=O)[C@H](C)[C@@H]1O)C(=O)O [Lactacystin, reference compound] was tested, and the “p27 in nuclear and cytoplasmic fractions” value (p27 in ECC-1 cells; ECC-1 (FIG. 11D)) was “increases p27 in both subcellular fractions”, the “Block of E2-induced decrease of p27” value (p27 in ECC-1 cells; 18 h) was “completely blocked” and the Inhibition of proliferation (ECC-1 cells) was 36%.
With NS(=O)(=O)OC[C@@H]1C[C@@H](n2ccc3c(N[C@H]4CCc5ccccc54)ncnc32)C[C@@H]1O [MLN-4924, reference compound] the “Neddylation of Cul1” value [1] was “inhibited neddylation of Cul1”.
COc1cccc(-c2cc(=O)c3ccccc3o2)c1N [PD 98059, PD98059, reference compound] was tested, and the “p27 less than control” value (p27 in ECC-1 cells; ECC-1, E2 plus 20 μM PD98059, 18 h) was 24%.
With COc1ccc(Br)cc1C=C1SC(=S)N(Cc2cccnc2)C1=O [UM-C1, reference compound] the “p27 binding to Skp2” value (Skp2-p27 interaction) was “lost the ability to inhibit p27 from binding to Skp2” and the “Shift of melting temperature (Tm) of purified protein complex” value (His-6Skp1-Skp2-Cks1) was “not”.
COCCCN1C(=O)C(=Cc2ccccc2O)C(C(=O)OC)=C1C [UM-C2a, reference compound] was tested, and the “Inhibition of Skp2-mediated p27 ubiquitylation” value (SCF-Skp2 (Skp2-Cks1)) was “partially reduced p27 ubiquitylation”.
CCN1C(=O)C(=Cc2ccccc2O)C(C(=O)OC)=C1C [UM-C2b, reference compound] was tested, and the “p27 binding to Skp2” value (Skp2-p27 interaction) was “lost the ability to inhibit p27 from binding to Skp2”.
